The supplement of paper PMC10307832

Columns and labels:
Test in all cases: relative viability (nuclei count vs DMSO), 5 days (fraction); higher = more cells survive
TPCA-1 + Phenformin = compound: C1=CC(=CC=C1C2=CC(=C(S2)NC(=O)N)C(=O)N)F [TPCA-1] + N=C(N)NC(=N)NCCc1ccccc1 [Phenformin] (partner 250 µM)
Method in brief: (§1)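 Values are medians from duplicate plates. Each reflects relative viability, defined as the nuclei count of treated wells over that of vehicle wells. Lung cancer cell lines in 1536-well plates were pin-tool dosed one day after seeding with one drug alone or with a fixed anchor-drug dose plus five library-drug doses (not always all listed) in √10 steps, then fixed, stained and imaged at 4× after 5 days.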

[1] = compound: C1/C(=C\C2=CC=CS2)/C(=O)/C(=C/C3=CC=CS3)/C1 + CCNC(=O)c1noc(-c2cc(C(C)C)c(O)cc2O)c1-c1ccc(CN2CCOCC2)cc1 [Luminespib] (partner 0.01 µM)
Method in brief: as §1

TPCA-1 + Tozasertib = compound: C1=CC(=CC=C1C2=CC(=C(S2)NC(=O)N)C(=O)N)F [TPCA-1] + Cc1cc(Nc2cc(N3CCN(C)CC3)nc(Sc3ccc(NC(=O)C4CC4)cc3)n2)n[nH]1 [Tozasertib] (partner 0.1 µM)
Method in brief: as §1

TPCA-1 + AZD7762 = compound: C1=CC(=CC=C1C2=CC(=C(S2)NC(=O)N)C(=O)N)F [TPCA-1] + NC(=O)Nc1cc(-c2cccc(F)c2)sc1C(=O)N[C@H]1CCCNC1 [AZD7762] (partner 0.2 µM)
Method in brief: as §1

Cell Line: NCI-H1563
- relative viability (TPCA-1 + Phenformin; first compound 0.04 µM): 0.712
- relative viability (TPCA-1 + Phenformin; first compound 0.1265 µM): 0.653
- relative viability (TPCA-1 + Phenformin; first compound 0.4 µM): 0.712
- relative viability (TPCA-1 + Phenformin; first compound 1.265 µM): 0.603
- relative viability (TPCA-1 + Phenformin; first compound 4 µM): 0.667
- relative viability ([1]; first compound 0.2 µM): 0.567
- relative viability ([1]; first compound 0.6325 µM): 0.511
- relative viability ([1]; first compound 2 µM): 0.552
- relative viability ([1]; first compound 6.325 µM): 0.534
- relative viability ([1]; first compound 20 µM): 0.492

Cell Line: NCI-H1623
- relative viability (TPCA-1 + Phenformin; first compound 0.04 µM): 0.592
- relative viability (TPCA-1 + Phenformin; first compound 0.1265 µM): 0.522
- relative viability (TPCA-1 + Phenformin; first compound 0.4 µM): 0.62
- relative viability (TPCA-1 + Phenformin; first compound 1.265 µM): 0.574
- relative viability (TPCA-1 + Phenformin; first compound 4 µM): 0.4
- relative viability (TPCA-1 + Tozasertib; first compound 0.04 µM): 0.408
- relative viability (TPCA-1 + Tozasertib; first compound 0.1265 µM): 0.402
- relative viability (TPCA-1 + Tozasertib; first compound 0.4 µM): 0.454
- relative viability (TPCA-1 + Tozasertib; first compound 1.265 µM): 0.437
- relative viability (TPCA-1 + Tozasertib; first compound 4 µM): 0.37
- relative viability ([1]; first compound 0.2 µM): 0.672
- relative viability ([1]; first compound 0.6325 µM): 0.601
- relative viability ([1]; first compound 2 µM): 0.528
- relative viability ([1]; first compound 6.325 µM): 0.372
- relative viability ([1]; first compound 20 µM): 0.511

Cell Line: NCI-H1648
- relative viability (TPCA-1 + AZD7762; first compound 0.04 µM): 0.807
- relative viability (TPCA-1 + AZD7762; first compound 0.1265 µM): 0.682
- relative viability (TPCA-1 + AZD7762; first compound 0.4 µM): 0.684
- relative viability (TPCA-1 + AZD7762; first compound 1.265 µM): 0.806
- relative viability (TPCA-1 + AZD7762; first compound 4 µM): 0.668
- relative viability (TPCA-1 + Tozasertib; first compound 0.04 µM): 0.548
- relative viability (TPCA-1 + Tozasertib; first compound 0.1265 µM): 0.355
- relative viability (TPCA-1 + Tozasertib; first compound 0.4 µM): 0.486
- relative viability (TPCA-1 + Tozasertib; first compound 1.265 µM): 0.573
- relative viability (TPCA-1 + Tozasertib; first compound 4 µM): 0.379

Cell Line: NCI-H1650
- relative viability (TPCA-1 + Phenformin; first compound 0.04 µM): 0.452
- relative viability (TPCA-1 + Phenformin; first compound 0.4 µM): 0.487
- relative viability (TPCA-1 + Phenformin; first compound 1.265 µM): 0.469
- relative viability (TPCA-1 + Phenformin; first compound 4 µM): 0.386
- relative viability (TPCA-1 + Tozasertib; first compound 0.04 µM): 0.386
- relative viability (TPCA-1 + Tozasertib; first compound 0.4 µM): 0.459
- relative viability (TPCA-1 + Tozasertib; first compound 1.265 µM): 0.339
- relative viability (TPCA-1 + Tozasertib; first compound 4 µM): 0.257
- relative viability ([1]; first compound 0.2 µM): 0.176
- relative viability ([1]; first compound 0.6325 µM): 0.194
- relative viability ([1]; first compound 2 µM): 0.205
- relative viability ([1]; first compound 6.325 µM): 0.218
- relative viability ([1]; first compound 20 µM): 0.185

Cell Line: NCI-H1703
- relative viability (TPCA-1 + AZD7762; first compound 0.04 µM): 0.132
- relative viability (TPCA-1 + AZD7762; first compound 0.1265 µM): 0.118
- relative viability (TPCA-1 + AZD7762; first compound 0.4 µM): 0.136
- relative viability (TPCA-1 + AZD7762; first compound 4 µM): 0.122

Cell Line: NCI-H1792
- relative viability (TPCA-1 + Phenformin; first compound 0.04 µM): 0.326
- relative viability (TPCA-1 + Phenformin; first compound 0.1265 µM): 0.246
- relative viability (TPCA-1 + Phenformin; first compound 0.4 µM): 0.322
- relative viability (TPCA-1 + Phenformin; first compound 1.265 µM): 0.217
- relative viability (TPCA-1 + Phenformin; first compound 4 µM): 0.158
- relative viability (TPCA-1 + AZD7762; first compound 0.04 µM): 0.623
- relative viability (TPCA-1 + AZD7762; first compound 0.1265 µM): 0.62
- relative viability (TPCA-1 + AZD7762; first compound 0.4 µM): 0.596
- relative viability (TPCA-1 + AZD7762; first compound 1.265 µM): 0.483
- relative viability (TPCA-1 + AZD7762; first compound 4 µM): 0.363
- relative viability ([1]; first compound 0.2 µM): 0.509
- relative viability ([1]; first compound 0.6325 µM): 0.285
- relative viability ([1]; first compound 2 µM): 0.468
- relative viability ([1]; first compound 6.325 µM): 0.583
- relative viability ([1]; first compound 20 µM): 0.388

Cell Line: NCI-H2009
- relative viability (TPCA-1 + Phenformin; first compound 0.04 µM): 0.542
- relative viability (TPCA-1 + Phenformin; first compound 0.1265 µM): 0.486
- relative viability (TPCA-1 + Phenformin; first compound 0.4 µM): 0.512
- relative viability (TPCA-1 + Phenformin; first compound 1.265 µM): 0.429
- relative viability (TPCA-1 + Phenformin; first compound 4 µM): 0.44
- relative viability (TPCA-1 + Tozasertib; first compound 0.04 µM): 0.8
- relative viability (TPCA-1 + Tozasertib; first compound 0.1265 µM): 0.686
- relative viability (TPCA-1 + Tozasertib; first compound 0.4 µM): 0.834
- relative viability (TPCA-1 + Tozasertib; first compound 1.265 µM): 0.649
- relative viability (TPCA-1 + Tozasertib; first compound 4 µM): 0.545
- relative viability ([1]; first compound 0.2 µM): 1.05
- relative viability ([1]; first compound 0.6325 µM): 1.05
- relative viability ([1]; first compound 2 µM): 0.941
- relative viability ([1]; first compound 6.325 µM): 0.741
- relative viability ([1]; first compound 20 µM): 1.03

Cell Line: NCI-H2023
- relative viability (TPCA-1 + Phenformin; first compound 0.04 µM): 0.488
- relative viability (TPCA-1 + Phenformin; first compound 0.1265 µM): 0.423
- relative viability (TPCA-1 + Phenformin; first compound 0.4 µM): 0.476
- relative viability (TPCA-1 + Phenformin; first compound 1.265 µM): 0.359
- relative viability (TPCA-1 + Phenformin; first compound 4 µM): 0.269
- relative viability (TPCA-1 + Tozasertib; first compound 0.04 µM): 0.357
- relative viability (TPCA-1 + Tozasertib; first compound 0.1265 µM): 0.282
- relative viability (TPCA-1 + Tozasertib; first compound 0.4 µM): 0.335
- relative viability (TPCA-1 + Tozasertib; first compound 1.265 µM): 0.15
- relative viability (TPCA-1 + Tozasertib; first compound 4 µM): 0.0965
- relative viability ([1]; first compound 0.2 µM): 0.864
- relative viability ([1]; first compound 0.6325 µM): 0.642
- relative viability ([1]; first compound 2 µM): 0.735
- relative viability ([1]; first compound 6.325 µM): 0.515
- relative viability ([1]; first compound 20 µM): 0.677

Cell Line: NCI-H2228
- relative viability (TPCA-1 + Phenformin; first compound 0.04 µM): 0.396
- relative viability (TPCA-1 + Phenformin; first compound 0.1265 µM): 0.292
- relative viability (TPCA-1 + Phenformin; first compound 0.4 µM): 0.412
- relative viability (TPCA-1 + Phenformin; first compound 1.265 µM): 0.285
- relative viability (TPCA-1 + Phenformin; first compound 4 µM): 0.272
- relative viability (TPCA-1 + Tozasertib; first compound 0.04 µM): 0.299
- relative viability (TPCA-1 + Tozasertib; first compound 0.1265 µM): 0.178
- relative viability (TPCA-1 + Tozasertib; first compound 0.4 µM): 0.285
- relative viability (TPCA-1 + Tozasertib; first compound 1.265 µM): 0.232
- relative viability (TPCA-1 + Tozasertib; first compound 4 µM): 0.108
- relative viability ([1]; first compound 0.2 µM): 0.158
- relative viability ([1]; first compound 0.6325 µM): 0.167
- relative viability ([1]; first compound 2 µM): 0.179
- relative viability ([1]; first compound 6.325 µM): 0.133
- relative viability ([1]; first compound 20 µM): 0.134

Cell Line: SK-LU-1
- relative viability (TPCA-1 + Phenformin; first compound 0.04 µM): 0.719
- relative viability (TPCA-1 + Phenformin; first compound 0.1265 µM): 0.461
- relative viability (TPCA-1 + Phenformin; first compound 0.4 µM): 0.662
- relative viability (TPCA-1 + Phenformin; first compound 1.265 µM): 0.44
- relative viability (TPCA-1 + Phenformin; first compound 4 µM): 0.238
- relative viability (TPCA-1 + Tozasertib; first compound 0.04 µM): 0.333
- relative viability (TPCA-1 + Tozasertib; first compound 0.1265 µM): 0.297
- relative viability (TPCA-1 + Tozasertib; first compound 0.4 µM): 0.309
- relative viability (TPCA-1 + Tozasertib; first compound 1.265 µM): 0.253
- relative viability (TPCA-1 + Tozasertib; first compound 4 µM): 0.248
- relative viability ([1]; first compound 0.2 µM): 0.204
- relative viability ([1]; first compound 0.6325 µM): 0.191
- relative viability ([1]; first compound 2 µM): 0.202
- relative viability ([1]; first compound 6.325 µM): 0.181
- relative viability ([1]; first compound 20 µM): 0.214

Cell Line: SK-MES-1
- relative viability (TPCA-1 + Phenformin; first compound 0.04 µM): 0.679
- relative viability (TPCA-1 + Phenformin; first compound 0.1265 µM): 0.612
- relative viability (TPCA-1 + Phenformin; first compound 0.4 µM): 0.668
- relative viability (TPCA-1 + Phenformin; first compound 1.265 µM): 0.596
- relative viability (TPCA-1 + Phenformin; first compound 4 µM): 0.498
- relative viability (TPCA-1 + Tozasertib; first compound 0.04 µM): 0.866
- relative viability (TPCA-1 + Tozasertib; first compound 0.1265 µM): 0.82
- relative viability (TPCA-1 + Tozasertib; first compound 0.4 µM): 0.933
- relative viability (TPCA-1 + Tozasertib; first compound 1.265 µM): 0.728
- relative viability (TPCA-1 + Tozasertib; first compound 4 µM): 0.24
- relative viability ([1]; first compound 0.2 µM): 0.868
- relative viability ([1]; first compound 0.6325 µM): 0.646
- relative viability ([1]; first compound 2 µM): 0.839
- relative viability ([1]; first compound 6.325 µM): 0.545
- relative viability ([1]; first compound 20 µM): 0.773

Cell Line: SW 1573
- relative viability (TPCA-1 + Phenformin; first compound 0.04 µM): 0.341
- relative viability (TPCA-1 + Phenformin; first compound 0.1265 µM): 0.323
- relative viability (TPCA-1 + Phenformin; first compound 0.4 µM): 0.411
- relative viability (TPCA-1 + Phenformin; first compound 1.265 µM): 0.296
- relative viability (TPCA-1 + Phenformin; first compound 4 µM): 0.331
- relative viability (TPCA-1 + Tozasertib; first compound 0.04 µM): 0.189
- relative viability (TPCA-1 + Tozasertib; first compound 0.1265 µM): 0.162
- relative viability (TPCA-1 + Tozasertib; first compound 0.4 µM): 0.181
- relative viability (TPCA-1 + Tozasertib; first compound 1.265 µM): 0.132
- relative viability (TPCA-1 + Tozasertib; first compound 4 µM): 0.135
- relative viability ([1]; first compound 0.2 µM): 0.25
- relative viability ([1]; first compound 0.6325 µM): 0.192
- relative viability ([1]; first compound 2 µM): 0.194
- relative viability ([1]; first compound 6.325 µM): 0.161
- relative viability ([1]; first compound 20 µM): 0.181
